In paper PMC7026418, “The kinase polypharmacology landscape of clinical PARP inhibitors” (Scientific Reports, 2020):
Read-outs that look alike come from different tables or passages of the source. Blank lines part the entries; values can stand above or below the compound they belong to.

What was measured:
Experiment in all cases: biochemical
Parameters in all cases: DiscoveRx KINOMEscan active site-directed competition binding; percent of control kinase bound to immobilised ligand
PYK2 = molecular target: T1, PYK2 (Homo sapiens, UniProt Q14289)
T1 construct: gene PTK2B

PRKCH = PRKCH (Homo sapiens, UniProt P24723)
CLK1 = CLK1 (Homo sapiens, UniProt P49759)
LCK = LCK (Homo sapiens, UniProt P06239)
LIMK2 = LIMK2 (Homo sapiens, UniProt P53671)
CHEK1 = molecular target: T2, CHEK1 (Homo sapiens, UniProt O14757)
T2 sequence (O14757 1-476): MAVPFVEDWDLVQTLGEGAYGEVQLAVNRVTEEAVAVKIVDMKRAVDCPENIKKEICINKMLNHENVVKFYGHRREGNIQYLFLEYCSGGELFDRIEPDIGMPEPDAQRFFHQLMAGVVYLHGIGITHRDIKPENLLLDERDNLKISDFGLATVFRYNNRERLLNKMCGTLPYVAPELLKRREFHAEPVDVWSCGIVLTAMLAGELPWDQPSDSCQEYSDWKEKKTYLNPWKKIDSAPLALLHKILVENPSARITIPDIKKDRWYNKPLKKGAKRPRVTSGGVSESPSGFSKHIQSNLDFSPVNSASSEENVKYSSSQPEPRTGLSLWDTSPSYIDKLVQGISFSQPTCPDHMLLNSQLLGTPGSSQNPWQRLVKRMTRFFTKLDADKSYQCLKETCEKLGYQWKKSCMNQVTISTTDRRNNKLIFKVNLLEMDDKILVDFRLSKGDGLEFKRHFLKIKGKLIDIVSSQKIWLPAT

WEE2 = WEE2 (Homo sapiens, UniProt P0C1S8)
CAMK4 = molecular target: T3, CAMK4 (Homo sapiens, UniProt Q16566)
T3 sequence (Q16566 1-473): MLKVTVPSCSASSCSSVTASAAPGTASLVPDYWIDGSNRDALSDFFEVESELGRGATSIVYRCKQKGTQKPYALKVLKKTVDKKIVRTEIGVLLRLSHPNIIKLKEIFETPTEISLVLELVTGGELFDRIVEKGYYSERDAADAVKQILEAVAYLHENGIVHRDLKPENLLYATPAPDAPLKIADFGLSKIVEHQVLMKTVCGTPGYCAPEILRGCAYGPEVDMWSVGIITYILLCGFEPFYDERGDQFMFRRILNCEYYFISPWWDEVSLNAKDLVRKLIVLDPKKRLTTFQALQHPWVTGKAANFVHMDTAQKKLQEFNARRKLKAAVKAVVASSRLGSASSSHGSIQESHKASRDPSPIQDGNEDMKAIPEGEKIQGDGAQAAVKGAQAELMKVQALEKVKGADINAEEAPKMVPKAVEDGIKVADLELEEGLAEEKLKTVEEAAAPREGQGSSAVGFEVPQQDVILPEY

NEK9 = molecular target: T4, NEK9 (Homo sapiens, UniProt Q8TD19)
T4 sequence (Q8TD19 1-979): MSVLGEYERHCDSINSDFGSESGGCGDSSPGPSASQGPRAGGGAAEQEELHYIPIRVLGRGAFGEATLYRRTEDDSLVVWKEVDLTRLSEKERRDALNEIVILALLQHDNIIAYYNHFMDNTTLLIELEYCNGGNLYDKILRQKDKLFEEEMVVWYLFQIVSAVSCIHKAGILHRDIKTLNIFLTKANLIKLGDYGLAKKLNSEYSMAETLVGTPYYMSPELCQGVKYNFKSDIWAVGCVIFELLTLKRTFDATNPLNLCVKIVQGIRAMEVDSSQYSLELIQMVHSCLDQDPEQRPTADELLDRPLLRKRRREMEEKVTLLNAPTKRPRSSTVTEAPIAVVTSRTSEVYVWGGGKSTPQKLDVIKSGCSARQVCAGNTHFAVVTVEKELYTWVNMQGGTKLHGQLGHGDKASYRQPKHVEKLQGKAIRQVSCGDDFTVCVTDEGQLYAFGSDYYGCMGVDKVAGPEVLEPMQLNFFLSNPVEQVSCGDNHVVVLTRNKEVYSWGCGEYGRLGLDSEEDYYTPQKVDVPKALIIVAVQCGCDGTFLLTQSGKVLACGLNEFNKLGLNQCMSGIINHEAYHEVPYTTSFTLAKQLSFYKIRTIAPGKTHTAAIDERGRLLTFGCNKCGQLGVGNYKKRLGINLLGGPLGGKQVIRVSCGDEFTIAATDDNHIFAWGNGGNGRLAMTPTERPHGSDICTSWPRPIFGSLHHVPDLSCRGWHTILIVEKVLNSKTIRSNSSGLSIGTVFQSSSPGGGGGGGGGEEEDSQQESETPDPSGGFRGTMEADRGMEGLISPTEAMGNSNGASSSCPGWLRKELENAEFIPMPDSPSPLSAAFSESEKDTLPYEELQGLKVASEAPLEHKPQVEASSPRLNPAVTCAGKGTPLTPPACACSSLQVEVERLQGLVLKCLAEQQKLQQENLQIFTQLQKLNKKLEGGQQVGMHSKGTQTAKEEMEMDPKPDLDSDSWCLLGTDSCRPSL

ALK = ALK (Homo sapiens, UniProt Q9UM73)
PIK4CB = molecular target: T5, PIK4CB (Homo sapiens, UniProt Q9UBF8)
T5 construct: gene PI4KB

[1] = read-out: Olaparib / %Ctrl @ 10000nM
[2] = read-out: Talazoparib (BMN 673) / %Ctrl @ 10000nM
[3] = read-out: Rucaparib / %Ctrl @ 10000nM, binding competition, % of control
[4] = read-out: Niraparib (MK-4827) / %Ctrl @ 10000nM

Chain of LCK (P06239 whole entry): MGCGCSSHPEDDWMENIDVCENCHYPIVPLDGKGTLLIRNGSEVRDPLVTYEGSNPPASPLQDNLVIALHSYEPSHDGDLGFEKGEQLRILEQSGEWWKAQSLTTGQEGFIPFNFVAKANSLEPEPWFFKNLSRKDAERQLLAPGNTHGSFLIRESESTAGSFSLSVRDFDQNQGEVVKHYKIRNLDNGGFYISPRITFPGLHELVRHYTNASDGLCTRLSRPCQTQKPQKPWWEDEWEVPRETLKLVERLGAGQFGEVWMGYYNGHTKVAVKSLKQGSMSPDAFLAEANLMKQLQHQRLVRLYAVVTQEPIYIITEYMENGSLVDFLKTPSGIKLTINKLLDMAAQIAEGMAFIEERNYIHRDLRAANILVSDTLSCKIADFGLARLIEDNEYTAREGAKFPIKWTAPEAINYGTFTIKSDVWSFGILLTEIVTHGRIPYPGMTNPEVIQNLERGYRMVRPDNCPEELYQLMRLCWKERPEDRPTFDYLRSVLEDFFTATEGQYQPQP
T5 sequence (Q9UBF8 whole entry): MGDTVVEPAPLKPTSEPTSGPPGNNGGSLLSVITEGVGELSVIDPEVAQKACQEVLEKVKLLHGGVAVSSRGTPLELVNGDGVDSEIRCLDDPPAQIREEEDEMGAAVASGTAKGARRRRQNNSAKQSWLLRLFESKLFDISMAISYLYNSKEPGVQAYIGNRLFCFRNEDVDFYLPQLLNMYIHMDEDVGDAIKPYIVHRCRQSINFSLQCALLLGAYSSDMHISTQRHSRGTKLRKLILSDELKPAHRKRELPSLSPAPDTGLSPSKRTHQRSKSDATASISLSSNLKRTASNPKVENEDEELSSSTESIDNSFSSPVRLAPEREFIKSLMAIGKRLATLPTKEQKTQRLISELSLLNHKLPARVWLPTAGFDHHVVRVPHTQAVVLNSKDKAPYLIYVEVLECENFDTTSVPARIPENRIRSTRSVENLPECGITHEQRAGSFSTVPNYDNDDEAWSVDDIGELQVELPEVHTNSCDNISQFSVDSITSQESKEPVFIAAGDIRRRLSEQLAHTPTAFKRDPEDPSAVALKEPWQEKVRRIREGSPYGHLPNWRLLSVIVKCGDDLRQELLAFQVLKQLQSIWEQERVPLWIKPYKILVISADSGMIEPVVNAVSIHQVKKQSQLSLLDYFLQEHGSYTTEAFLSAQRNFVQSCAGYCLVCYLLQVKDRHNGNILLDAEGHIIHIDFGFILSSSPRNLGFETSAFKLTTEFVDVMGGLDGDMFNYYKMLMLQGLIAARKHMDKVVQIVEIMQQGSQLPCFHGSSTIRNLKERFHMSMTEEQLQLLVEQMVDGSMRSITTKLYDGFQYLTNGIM
Chain of LIMK2 (P53671 whole entry): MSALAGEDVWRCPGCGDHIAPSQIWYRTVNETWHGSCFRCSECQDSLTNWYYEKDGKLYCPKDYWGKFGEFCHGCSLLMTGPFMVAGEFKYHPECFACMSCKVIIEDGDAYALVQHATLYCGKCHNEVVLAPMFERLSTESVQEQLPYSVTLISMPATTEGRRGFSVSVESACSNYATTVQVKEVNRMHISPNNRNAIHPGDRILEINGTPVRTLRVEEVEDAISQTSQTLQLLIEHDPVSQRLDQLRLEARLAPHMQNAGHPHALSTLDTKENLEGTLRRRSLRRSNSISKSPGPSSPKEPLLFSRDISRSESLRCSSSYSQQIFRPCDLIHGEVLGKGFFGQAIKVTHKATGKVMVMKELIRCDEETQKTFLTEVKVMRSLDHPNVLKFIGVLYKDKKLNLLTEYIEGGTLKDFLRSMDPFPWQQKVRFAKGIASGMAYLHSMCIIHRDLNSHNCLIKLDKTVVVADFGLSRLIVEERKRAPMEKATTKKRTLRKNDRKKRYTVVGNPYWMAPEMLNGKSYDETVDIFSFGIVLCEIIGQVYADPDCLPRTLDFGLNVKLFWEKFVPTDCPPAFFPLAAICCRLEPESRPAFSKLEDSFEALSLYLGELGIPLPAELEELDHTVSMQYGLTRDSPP
Chain of PRKCH (P24723 whole entry): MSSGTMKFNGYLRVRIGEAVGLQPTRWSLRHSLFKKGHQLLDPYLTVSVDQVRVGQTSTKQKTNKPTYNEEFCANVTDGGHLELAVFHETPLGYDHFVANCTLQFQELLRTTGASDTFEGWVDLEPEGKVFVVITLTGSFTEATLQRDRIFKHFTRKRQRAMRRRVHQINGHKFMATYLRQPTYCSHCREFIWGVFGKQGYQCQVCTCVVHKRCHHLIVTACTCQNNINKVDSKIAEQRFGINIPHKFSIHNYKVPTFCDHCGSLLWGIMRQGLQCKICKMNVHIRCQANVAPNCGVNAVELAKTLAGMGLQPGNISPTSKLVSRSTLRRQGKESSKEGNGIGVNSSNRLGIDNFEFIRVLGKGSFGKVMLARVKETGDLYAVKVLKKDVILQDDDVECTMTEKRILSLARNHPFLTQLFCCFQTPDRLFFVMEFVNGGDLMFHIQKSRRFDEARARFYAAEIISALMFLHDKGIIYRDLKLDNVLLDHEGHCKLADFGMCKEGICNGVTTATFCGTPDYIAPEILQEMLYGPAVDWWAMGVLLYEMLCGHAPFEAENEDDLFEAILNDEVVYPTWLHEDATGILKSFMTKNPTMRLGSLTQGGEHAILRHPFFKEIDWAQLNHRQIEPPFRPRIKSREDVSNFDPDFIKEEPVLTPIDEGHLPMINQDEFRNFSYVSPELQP
Chain of CLK1 (P49759 whole entry): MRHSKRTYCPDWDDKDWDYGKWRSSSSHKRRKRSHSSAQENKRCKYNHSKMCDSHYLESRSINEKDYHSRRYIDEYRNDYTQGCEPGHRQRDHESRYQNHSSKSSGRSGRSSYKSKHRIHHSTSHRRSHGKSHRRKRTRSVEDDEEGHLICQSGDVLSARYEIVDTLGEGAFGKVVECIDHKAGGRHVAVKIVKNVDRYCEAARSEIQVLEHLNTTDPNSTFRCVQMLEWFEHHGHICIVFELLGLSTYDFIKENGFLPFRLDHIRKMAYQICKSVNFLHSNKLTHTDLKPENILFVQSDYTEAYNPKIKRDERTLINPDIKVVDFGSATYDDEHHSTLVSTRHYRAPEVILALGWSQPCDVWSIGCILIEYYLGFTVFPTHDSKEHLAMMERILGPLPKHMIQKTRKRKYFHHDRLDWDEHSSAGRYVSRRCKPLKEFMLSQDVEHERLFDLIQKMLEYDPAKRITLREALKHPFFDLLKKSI
Chain of ALK (Q9UM73 whole entry): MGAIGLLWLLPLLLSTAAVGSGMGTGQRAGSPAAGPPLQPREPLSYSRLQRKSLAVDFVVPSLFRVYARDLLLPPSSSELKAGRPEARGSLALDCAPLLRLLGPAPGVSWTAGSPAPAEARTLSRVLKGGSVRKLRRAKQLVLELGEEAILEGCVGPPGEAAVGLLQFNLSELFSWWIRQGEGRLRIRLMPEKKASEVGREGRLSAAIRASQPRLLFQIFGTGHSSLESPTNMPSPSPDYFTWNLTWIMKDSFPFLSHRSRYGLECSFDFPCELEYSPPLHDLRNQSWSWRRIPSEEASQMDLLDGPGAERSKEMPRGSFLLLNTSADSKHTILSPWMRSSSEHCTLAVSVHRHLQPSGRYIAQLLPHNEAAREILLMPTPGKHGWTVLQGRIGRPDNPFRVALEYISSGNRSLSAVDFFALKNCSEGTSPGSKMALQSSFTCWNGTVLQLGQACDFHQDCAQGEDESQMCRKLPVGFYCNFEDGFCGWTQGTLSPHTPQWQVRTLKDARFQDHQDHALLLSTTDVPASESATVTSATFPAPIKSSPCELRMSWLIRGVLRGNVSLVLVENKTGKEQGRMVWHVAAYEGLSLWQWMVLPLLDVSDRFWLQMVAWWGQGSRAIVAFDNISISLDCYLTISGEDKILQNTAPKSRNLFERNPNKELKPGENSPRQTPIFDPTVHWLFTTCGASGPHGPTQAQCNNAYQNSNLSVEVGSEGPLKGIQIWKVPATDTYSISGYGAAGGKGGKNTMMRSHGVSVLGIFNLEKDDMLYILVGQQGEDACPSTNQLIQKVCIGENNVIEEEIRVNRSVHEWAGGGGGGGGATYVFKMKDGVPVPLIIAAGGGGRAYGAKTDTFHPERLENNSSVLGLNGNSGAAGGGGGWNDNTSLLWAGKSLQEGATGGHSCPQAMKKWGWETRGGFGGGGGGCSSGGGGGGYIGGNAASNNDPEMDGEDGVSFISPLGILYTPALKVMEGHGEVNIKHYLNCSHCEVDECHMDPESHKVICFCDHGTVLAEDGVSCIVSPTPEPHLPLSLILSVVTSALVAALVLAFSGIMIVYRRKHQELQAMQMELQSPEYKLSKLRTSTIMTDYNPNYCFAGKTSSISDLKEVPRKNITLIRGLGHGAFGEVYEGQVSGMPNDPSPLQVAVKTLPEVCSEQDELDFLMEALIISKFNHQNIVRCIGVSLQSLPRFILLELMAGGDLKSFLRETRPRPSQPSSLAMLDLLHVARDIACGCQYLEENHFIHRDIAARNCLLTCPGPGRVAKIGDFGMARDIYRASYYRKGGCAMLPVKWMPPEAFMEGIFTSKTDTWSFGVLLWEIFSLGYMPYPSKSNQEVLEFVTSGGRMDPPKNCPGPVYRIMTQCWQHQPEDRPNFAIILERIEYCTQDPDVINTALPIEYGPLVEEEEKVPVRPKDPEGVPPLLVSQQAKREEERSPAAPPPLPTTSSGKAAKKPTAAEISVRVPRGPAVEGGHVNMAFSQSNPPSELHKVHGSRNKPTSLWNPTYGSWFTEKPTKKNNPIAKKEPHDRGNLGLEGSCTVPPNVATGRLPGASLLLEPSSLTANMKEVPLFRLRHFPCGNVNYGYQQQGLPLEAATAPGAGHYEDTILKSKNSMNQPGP

- percent of control binding at 10 µM (PYK2; [1]): 99%
- percent of control binding at 10 µM (PRKCH; [1]): 94%
- percent of control binding at 10 µM (CLK1; [1]): 99%
- percent of control binding at 10 µM (LCK; [1]): 100%
- percent of control binding at 10 µM (LIMK2; [1]): 100%
- percent of control binding at 10 µM (CHEK1; [1]): 79%
- percent of control binding at 10 µM (WEE2; [1]): 100%
- percent of control binding at 10 µM (CAMK4; [1]): 93%
- percent of control binding at 10 µM (ALK; [1]): 86%
- percent of control binding at 10 µM (PIK4CB; [1]): 94%
Structure (SMILES): O=C(c1cc(Cc2n[nH]c(=O)c3ccccc23)ccc1F)N1CCN(C(=O)C2CC2)CC1 [Olaparib]
- percent of control binding at 10 µM (NEK9; [1]): 100%

- percent of control binding at 10 µM (PYK2; [2]): 97%
- percent of control binding at 10 µM (PRKCH; [2]): 98%
- percent of control binding at 10 µM (CLK1; [2]): 86%
- percent of control binding at 10 µM (LCK; [2]): 90%
- percent of control binding at 10 µM (LIMK2; [2]): 100%
- percent of control binding at 10 µM (CHEK1; [2]): 86%
- percent of control binding at 10 µM (WEE2; [2]): 100%
- percent of control binding at 10 µM (CAMK4; [2]): 83%
- percent of control binding at 10 µM (ALK; [2]): 100%
- percent of control binding at 10 µM (PIK4CB; [2]): 81%
Structure (SMILES): Cn1ncnc1[C@H]1c2n[nH]c(=O)c3cc(F)cc(c23)N[C@@H]1c1ccc(F)cc1 [Talazoparib]
- percent of control binding at 10 µM (NEK9; [2]): 99%

- percent of control binding at 10 µM (PYK2; [3]): 100%
- percent of control binding at 10 µM (PRKCH; [3]): 94%
- percent of control binding at 10 µM (CLK1; [3]): 37%
- percent of control binding at 10 µM (LCK; [3]): 95%
- percent of control binding at 10 µM (LIMK2; [3]): 96%
- percent of control binding at 10 µM (CHEK1; [3]): 100%
- percent of control binding at 10 µM (WEE2; [3]): 100%
- percent of control binding at 10 µM (CAMK4; [3]): 94%
- percent of control binding at 10 µM (ALK; [3]): 45%
- percent of control binding at 10 µM (PIK4CB; [3]): 78%
Structure (SMILES): CNCc1ccc(-c2[nH]c3cc(F)cc4c3c2CCNC4=O)cc1 [Rucaparib]
- percent of control binding at 10 µM (NEK9; [3]): 100%

Structure (SMILES): NC(=O)c1cccc2cn(-c3ccc([C@@H]4CCCNC4)cc3)nc12 [Niraparib]
- percent of control binding at 10 µM (PYK2; [4]): 86%
- percent of control binding at 10 µM (PRKCH; [4]): 85%
- percent of control binding at 10 µM (CLK1; [4]): 48%
- percent of control binding at 10 µM (LCK; [4]): 82%
- percent of control binding at 10 µM (LIMK2; [4]): 91%
- percent of control binding at 10 µM (CHEK1; [4]): 72%
- percent of control binding at 10 µM (WEE2; [4]): 100%
- percent of control binding at 10 µM (CAMK4; [4]): 100%
- percent of control binding at 10 µM (NEK9; [4]): 100%
- percent of control binding at 10 µM (ALK; [4]): 98%
- percent of control binding at 10 µM (PIK4CB; [4]): 94%
